Test results published in the NIST ThermoML archive (doi:10.1016/j.jct.2012.12.001).
Numbers after ± are expanded uncertainties.

Experiment: heat capacity at constant pressure per volume; xn = mol fraction of the nth substance listed
Settings: 101 kPa, Liquid, DSC, x2 = 0.695

CCCCCCCCCCCCCCCCC [heptadecane] + N#Cc1ccccc1
heat capacity (319 K): 1720700 ± 20000 J/K/m3 | heat capacity (319.1 K): 1720600 ± 20000 J/K/m3 | heat capacity (319.2 K): 1720500 ± 20000 J/K/m3 | heat capacity (319.3 K): 1720600 ± 20000 J/K/m3 | heat capacity (319.5 K): 1721300 ± 20000 J/K/m3 | heat capacity (319.6 K): 1721200 ± 20000 J/K/m3 | heat capacity (319.7 K): 1720900 ± 20000 J/K/m3 | heat capacity (319.8 K): 1720700 ± 20000 J/K/m3 | heat capacity (319.9 K): 1720500 ± 20000 J/K/m3 | heat capacity (320 K): 1720400 ± 20000 J/K/m3 | heat capacity (320.1 K): 1720500 ± 20000 J/K/m3 | heat capacity (320.2 K): 1720300 ± 20000 J/K/m3 | heat capacity (320.3 K): 1720800 ± 20000 J/K/m3 | heat capacity (320.4 K): 1720700 ± 20000 J/K/m3 | heat capacity (320.5 K): 1720400 ± 20000 J/K/m3 | heat capacity (320.61 K): 1720200 ± 20000 J/K/m3 | heat capacity (320.7 K): 1720000 ± 20000 J/K/m3 | heat capacity (320.8 K): 1720000 ± 20000 J/K/m3 | heat capacity (320.9 K): 1719900 ± 20000 J/K/m3 | heat capacity (321 K): 1720300 ± 20000 J/K/m3 | heat capacity (321.1 K): 1720600 ± 20000 J/K/m3 | heat capacity (321.2 K): 1720600 ± 20000 J/K/m3 | heat capacity (321.3 K): 1720600 ± 20000 J/K/m3 | heat capacity (321.4 K): 1720400 ± 20000 J/K/m3 | heat capacity (321.5 K): 1720000 ± 20000 J/K/m3 | heat capacity (321.61 K): 1719900 ± 20000 J/K/m3 | heat capacity (321.7 K): 1720100 ± 20000 J/K/m3 | heat capacity (321.8 K): 1720100 ± 20000 J/K/m3 | heat capacity (321.89 K): 1720400 ± 20000 J/K/m3 | heat capacity (322 K): 1720500 ± 20000 J/K/m3 | heat capacity (322.1 K): 1720500 ± 20000 J/K/m3 | heat capacity (322.2 K): 1720100 ± 20000 J/K/m3 | heat capacity (322.3 K): 1720100 ± 20000 J/K/m3 | heat capacity (322.4 K): 1720300 ± 20000 J/K/m3 | heat capacity (322.5 K): 1720600 ± 20000 J/K/m3 | heat capacity (322.6 K): 1720600 ± 20000 J/K/m3 | heat capacity (322.7 K): 1720800 ± 20000 J/K/m3 | heat capacity (322.81 K): 1721200 ± 20000 J/K/m3 | heat capacity (322.9 K): 1720800 ± 20000 J/K/m3 | heat capacity (323 K): 1720200 ± 20000 J/K/m3 | heat capacity (323.11 K): 1720200 ± 20000 J/K/m3 | heat capacity (323.2 K): 1720100 ± 20000 J/K/m3 | heat capacity (323.3 K): 1720100 ± 20000 J/K/m3 | heat capacity (323.4 K): 1720200 ± 20000 J/K/m3 | heat capacity (323.5 K): 1720700 ± 20000 J/K/m3 | heat capacity (323.6 K): 1720800 ± 20000 J/K/m3 | heat capacity (323.7 K): 1720800 ± 20000 J/K/m3 | heat capacity (323.8 K): 1720500 ± 20000 J/K/m3 | heat capacity (323.9 K): 1720400 ± 20000 J/K/m3 | heat capacity (324 K): 1720200 ± 20000 J/K/m3 | heat capacity (324.1 K): 1720200 ± 20000 J/K/m3 | heat capacity (324.2 K): 1720200 ± 20000 J/K/m3 | heat capacity (324.3 K): 1720300 ± 20000 J/K/m3 | heat capacity (324.4 K): 1720500 ± 20000 J/K/m3 | heat capacity (324.5 K): 1720500 ± 20000 J/K/m3 | heat capacity (324.6 K): 1720500 ± 20000 J/K/m3 | heat capacity (324.7 K): 1720600 ± 20000 J/K/m3 | heat capacity (324.8 K): 1720600 ± 20000 J/K/m3 | heat capacity (324.9 K): 1720400 ± 20000 J/K/m3 | heat capacity (325 K): 1720700 ± 20000 J/K/m3 | heat capacity (325.1 K): 1720700 ± 20000 J/K/m3 | heat capacity (325.2 K): 1720400 ± 20000 J/K/m3 | heat capacity (325.3 K): 1719500 ± 20000 J/K/m3 | heat capacity (325.4 K): 1720300 ± 20000 J/K/m3 | heat capacity (325.5 K): 1720500 ± 20000 J/K/m3 | heat capacity (325.6 K): 1720300 ± 20000 J/K/m3 | heat capacity (325.7 K): 1720400 ± 20000 J/K/m3 | heat capacity (325.8 K): 1720200 ± 20000 J/K/m3 | heat capacity (325.9 K): 1720200 ± 20000 J/K/m3 | heat capacity (326 K): 1720600 ± 20000 J/K/m3 | heat capacity (326.1 K): 1720900 ± 20000 J/K/m3 | heat capacity (326.2 K): 1720900 ± 20000 J/K/m3 | heat capacity (326.3 K): 1720900 ± 20000 J/K/m3 | heat capacity (326.4 K): 1720400 ± 20000 J/K/m3 | heat capacity (326.5 K): 1720200 ± 20000 J/K/m3 | heat capacity (326.6 K): 1720300 ± 20000 J/K/m3 | heat capacity (326.7 K): 1720400 ± 20000 J/K/m3 | heat capacity (326.8 K): 1720400 ± 20000 J/K/m3 | heat capacity (326.9 K): 1720700 ± 20000 J/K/m3 | heat capacity (327 K): 1721000 ± 20000 J/K/m3 | heat capacity (327.1 K): 1721000 ± 20000 J/K/m3 | heat capacity (327.2 K): 1721100 ± 20000 J/K/m3 | heat capacity (327.3 K): 1720800 ± 20000 J/K/m3 | heat capacity (327.41 K): 1720500 ± 20000 J/K/m3 | heat capacity (327.5 K): 1720400 ± 20000 J/K/m3 | heat capacity (327.6 K): 1720500 ± 20000 J/K/m3 | heat capacity (327.7 K): 1721000 ± 20000 J/K/m3 | heat capacity (327.8 K): 1721200 ± 20000 J/K/m3 | heat capacity (327.9 K): 1720800 ± 20000 J/K/m3 | heat capacity (328 K): 1720800 ± 20000 J/K/m3 | heat capacity (328.1 K): 1720800 ± 20000 J/K/m3 | heat capacity (328.2 K): 1720900 ± 20000 J/K/m3 | heat capacity (328.3 K): 1720700 ± 20000 J/K/m3 | heat capacity (328.4 K): 1720800 ± 20000 J/K/m3 | heat capacity (328.5 K): 1721000 ± 20000 J/K/m3 | heat capacity (328.6 K): 1721500 ± 20000 J/K/m3 | heat capacity (328.7 K): 1721400 ± 20000 J/K/m3 | heat capacity (328.8 K): 1721200 ± 20000 J/K/m3 | heat capacity (328.9 K): 1721300 ± 20000 J/K/m3 | heat capacity (329 K): 1720900 ± 20000 J/K/m3 | heat capacity (329.1 K): 1720900 ± 20000 J/K/m3 | heat capacity (329.2 K): 1720800 ± 20000 J/K/m3
